Data reported in paper PMC6727188, “Image-Based Investigation: Biorelevant Solubility of α and γ Indomethacin” (Analytical Chemistry, 2019).
≈ marks a conversion by molar mass, not a printed value.

What was measured:
physchem = assay type: physicochemical; settings: for solubility: thermodynamic from solid, Shake-flask solubility
Experimental: The solubilities of α and γ indomethacin were measured by the conventional shake-flask method in HCl (pH 1.6), FaSSGFblk, and FeSSIFblk. A detailed description of the methodology can be found in the Supporting Information on page S-2.
Effect of particle morphology on the solubility values measured by the SPA method was assessed by the
MatLab® regionprops toolbox. Three morphology-describing parameters were extracted; namely:
eccentricity, major axis length and minor axis length. The morphology parameters were then plotted against
solubility values of individual particles (Figure S1 and Figure S2). No specific effect of particle morphology
on solubility, in the size range studied (5-25 µm), was found.
Shake-flask solubility measurements
Indomethacin α and γ samples were placed in excess amount into vials. The vials were filled with HCl,
FaSSGFblk and FeSSIFblk media and left to stir on a rotating machine. This procedure was repeated in
triplicate for both solid-state forms and the three media. After 24h, 48h and 72h samples of 2 mL were
extracted and filtered (Whatman™ PVDF 13 mm with 0.45 µm pore size). After filtration, the samples of α
indomethacin were diluted four times with the corresponding medium […]
The drug concentration in the samples was determined using an Agilent High Performance Liquid
Chromatography (HPLC) 1260 system (Agilent Technologies, Germany). The Phenomenex Gemini NX-
C18, 3 µm, 100 x 4.6 mm column (Phenomenex, Torrance, CA) was used in the assays. The temperature of
the column was set to 30°C. Mobile phase used was 0.2% H3PO4:Acetonitrile (40:60, v:v) with flow rate of
1.5 mL/min. Injection volume was 20 µL and total run time 5 min. Detection was preformed at 270 nm.
Standard solutions of indomethacin in MilliQ:Ethanol (50:50, v:v) were prepared and analyzed with HPLC
to construct the calibration curve. All samples were analyzed in triplicate: 0.1, 0.5, 1, 10, 50 and 100 µg/mL
After 72h, the remaining excess solids, from vials were initially α form of indomethacin was placed, were
filtered and dried overnight in a vacuum oven. The next day, the excess solids were analyzed by XRPD and
XRPD diffractograms of the
remaining solids are presented in the Figure S3 and DSC thermograms in the Figure S4.
When comparing the shake-flask solubility values to the SPA solubility values, they are in the same rank
order and within the generally accepted interlaboratory variance, 0.6 log units.32 Moreover, a slight shift of
XRPD peaks to the left and appearance of a small melting peak at 159.3°C ± 0.1°C in the DSC thermograms
of the remaining excess solid samples indicate a presence of γ form (Figure S3 and S4). The presence of γ
form, in vials were initially pure α form was placed, would result in lower solubility ratio of α to γ solubility
measured by shake-flask method (1.7 ± 0.4) when compared to the ratio obtained by the SPA method (3.3 ±
0.5). With the SPA method, the actual solubility of the metastable α form was measured before any possible
solid-state transformation occurred that could affect the measurement. This was achieved by starting the
measurement as soon as the solvent came in contact with the sample and also by maintaining the sink
conditions in the flow-through cell.

[1] = Image-based single-particle-analysis (SPA) solubility measurement in a flow-through setup; assay type: physicochemical; settings: for solubility ratio (RS) FaSSGF/FaSSGFblk / solubility ratio (RS) FaSSGF/HCl / solubility ratio (RS) FaSSGFblk/HCl / solubility ratio (RS) FeSSIF/FeSSIFblk: same solid-state form in different media
Experimental: Dissolution experiments utilizing the SPA method were performed using a custom-made flow-through setup (Figure 1). The experiments were conducted at room temperature (22 °C) rather than at 37 °C in order to ensure controlled experimental conditions. The setup enables the trapping of particles under constant-flow conditions. In this way, dissolved molecules are continuously extracted from the chamber, and sink conditions are maintained. As the measurement can be started as soon as the solvent comes in contact with the entrapped particles, the actual solubility of a metastable form can be measured before any possible solid-state transformation occurs that could affect the solubility. In eq 1, at sink conditions, bulk concentration (Cb) can be disregarded because it is practically zero. This means the dissolution rate (dm/dt) is dependent only on the equilibrium solubility at the interface (CS); k is the setup-dependent transport-rate constant determined as described by Svanbäck.[20] [drawing 1] 1 For a single measurement, approximately 10 mL of dissolution medium and less than 0.1 mg of sample were used. Online images were acquired over 15 min through the transparent part of the flow-through chamber using a USB microscope (Gigastone S1-100, Irvine, CA). At least five particles per solid-state form per medium were measured. For the analysis of the image data, a MatLab script was previously developed by Svanbäck and co-workers.[20],[22] The script enables quantification of the particle’s morphology change (i.e., dissolution rate) and, consequently, calculation of the solubility according to eq 1.

[2] = set-up: method as in ref 15 (Fagerberg and co-workers); settings: 37 °C, μDISS profiler; ref 15 (Fagerberg and co-workers); cited from earlier work
[3] = set-up: method as in ref 9 (Hancock et al.); settings: 200 mL deionized water, 45 °C; ref 9 (Hancock et al.); cited from earlier work
[4] = Estimation of the free-energy difference between polymorphs from DSC melting data; assay type: physicochemical; settings: estimated from DSC melting data, extrapolated to room temperature
Experimental: DSC experiments were performed using a DSC823e (Mettler-Toledo, Greifensee, Switzerland) equipped with a refrigerated cooling system (Julabo FT 900, Seelbach, Germany). Nitrogen was used as a purge gas (50 mL/min).
Samples (2–5 mg) were tightly packed into standard aluminum crucibles (40 μL) with pierced lids. Two different procedures were used in these measurements. For determination of melting temperature and enthalpy, the samples were equilibrated at 25 °C for 3 min and then linearly heated with a heating rate of 10 °C/min to 180 °C. For determination of heat capacities, the samples were equilibrated at 140 °C and then heated up to 180 °C using a TOPEM-modulated heating program with a heating rate of 1 °C/min and a pulse height of 1 °C. Samples were measured in triplicate, and thermal events were analyzed using STARe software (Mettler-Toledo, Greifensee, Switzerland). Temperatures of melting, enthalpies of melting, and heat capacities were used to estimate the free-energy difference between the α and γ polymorphs.
The free-energy difference between two polymorphs can be estimated from their melting data or their respective solubility values. […]

[5] = SPA method, FaSSGF pH 1.6, 22 °C
[6] = SPA method, FaSSGFblk (blank FaSSGF) pH 1.6, 22 °C
[7] = SPA method, FeSSIF pH 5.0, 22 °C
[8] = SPA method, FeSSIFblk (blank FeSSIF) pH 5.0, 22 °C

SMILES | solubility [1, 5] [µg/mL] | solubility [1, 6] [µg/mL] | solubility [1, 7] [µg/mL] | solubility [1, 8] [µg/mL] | solubility ratio (RS) FaSSGF/FaSSGFblk ([1]; SPA method) | solubility ratio (RS) FaSSGF/HCl ([1]; SPA method) | solubility ratio (RS) FaSSGFblk/HCl ([1]; SPA method) | solubility ratio (RS) FeSSIF/FeSSIFblk ([1]; SPA method) | also measured
COc1ccc2c(c1)c(CC(=O)O)c(C)n2C(=O)c1ccc(Cl)cc1 [γ form, indomethacin] | 0.10 ± 0.02 (≈ 0.279 µM) | 0.04 ± 0.03 (≈ 0.112 µM) | 3.80 ± 1.74 (≈ 10.6 µM) | 0.94 ± 0.58 (≈ 2.63 µM) | 2.5 | 1.0 | 0.4 | 4.0 | Shake-flask solubility (physchem; pH 1.6): 0.3 ± 0.1 µg/mL; Shake-flask solubility (physchem; pH 5): 6.4 ± 0.1 µg/mL; solubility ([1]; SPA method, HCl pH 1.6, 22 °C, listed as Indomethacin γ): 0.10 ± 0.05 µg/mL (≈ 0.279 µM); fold increase in solubility from FeSSIFblk to FeSSIF [2]: 7.3 fold
COc1ccc2c(c1)c(CC(=O)O)c(C)n2C(=O)c1ccc(Cl)cc1 [α form, indomethacin] | 0.29 ± 0.16 (≈ 0.811 µM) | 0.14 ± 0.09 (≈ 0.391 µM) | 15.7 ± 10.4 (≈ 43.9 µM) | 2.79 ± 1.67 (≈ 7.8 µM) | 2.1 | 0.9 | 0.4 | 5.6 | free-energy difference ΔG between the α and γ polymorphs (physchem): 0.311 kcal/mol; ratio of α- to γ-solid-state-form solubility (physchem): 1.7 ± 0.4; solubility (physchem; pH 1.6, fassgf or other biorelevant): 0.5 ± 0.2 µg/mL (≈ 1.4 µM); solubility (physchem; pH 1.6, simulated gastric fluid): 0.6 ± 0.1 µg/mL (≈ 1.68 µM); solubility (physchem; pH 5, fassgf or other biorelevant): 9 ± 0.2 µg/mL (≈ 25.2 µM); α- to γ-solubility ratio [3]: 1.1; solubility ([1]; SPA method, HCl pH 1.6, 22 °C): 0.34 ± 0.20 µg/mL (≈ 0.95 µM); ratio of α- to γ-solid-state-form solubility ([1]; SPA method, constant in all studied media (HCl, FaSSGFblk, FaSSGF, FeSSIFblk, FeSSIF)): 3.3 ± 0.5; free-energy difference ΔG between the α and γ polymorphs ([1]; from the SPA solubility ratios, molar units): 0.693 kcal/mol; free-energy difference ΔG between the α and γ polymorphs ([1]; from the α- to γ-solubility ratio obtained with the SPA method (eq 7), ambient temperature): 8 ± 1 J/g; free-energy difference ΔG between the α and γ polymorphs [4]: 12 ± 7 J/g
